These molecules were tested against T1, HIV-integrase (Human immunodeficiency virus type 1 group M subtype B, UniProt P12497) (assay: HIV-Integrase Inhibition Activity (SPA bead integration assay with P33 labeled target DNA)). Details: recombinant integrase, class symbols; read-out: in vitro activity.
T1 construct: Recombinant integrase (0.26 ng) was incubated with the beads
Assay type: biochemical
Outline: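 Strand integration read as bead-proximity CPM after P33 target DNA (0.1 fmol) and inhibitor were added to washed integrase–substrate DNA complexes on SPA beads. Enzyme bound 90 min at 37° C; EDTA (10 mM final) terminated reaction; IC50 graded A/B/C.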

`O=C1C[C@@H](C(=O)NC23CCC(CC2)Cn2c3nc(C(=O)NCc3ccc(F)cc3)c(O)c2=O)N1` [Example 264, 7,10-Ethanopyrimido[1,2-a]azepine-2-carboxamide, N-[(4-fluorophenyl)methyl]-4,6,7,8,9,10-hexahydro-3-hydroxy-4-oxo-10-[[[(2S)-4-oxo-2-azetidinyl]carbonyl]amino]-] and `CCOC(=O)C(=O)NC12CCC(CC1)Cn1c2nc(C(=O)NCc2ccc(F)cc2)c(O)c1=O` [Example 83, Ethyl((2-((4-fluorobenzyl)carbamoyl)-3-hydroxy-4-oxo-6,7,8,9-tetrahydro-7,10-ethanopyrimido[1,2-a]azepin-10(4H)-yl)amino)(oxo)acetate] cannot be ordered by IC50: < 10 nM for the first, < 10 nM for the second.

`CC(C)N(C)C(=O)C(=O)NC12CCC(CC1)Cn1c2nc(C(=O)NCc2ccc(F)cc2)c(O)c1=O` [Example 105, N′-(2-((4-Fluorobenzyl)carbamoyl)-3-hydroxy-4-oxo-6,7,8,9-tetrahydro-7,10-ethanopyrimido[1,2-a]azepin-10(4H)-yl)-N-methyl-N-(1-methylethyl)ethanediamide] and `CCN(C)C(=O)C(=O)NC12CCC(CC1)Cn1c2nc(C(=O)NCc2ccc(F)cc2)c(O)c1=O` [Example 101, N-Ethyl-N′-(2-((4-fluorobenzyl)carbamoyl)-3-hydroxy-4-oxo-6,7,8,9-tetrahydro-7,10-ethanopyrimido[1,2-a]azepin-10(4H)-yl)-N-methylethanediamide] cannot be ordered by IC50: < 10 nM for the first, < 10 nM for the second.

Compared with `CN(C)C(=O)C(=O)NC12CCC(CC1)Cn1c2nc(C(=O)NCc2nc3ccccc3s2)c(O)c1=O` [Example 360], `CN(C)C(=O)C(=O)NC12CCC(CC1)Cn1c2nc(C(=O)NCc2ccc(O)cc2)c(O)c1=O` [Example 390] is higher in IC50: < 10 nM for the first, 10 to 100 nM for the second.

`CCCOC(=O)N1CCCC1C(=O)NC12CCC(CC1)Cn1c2nc(C(=O)NCc2ccc(F)cc2)c(O)c1=O` (stereo not drawn) [Example 398] and `O=C(NCc1ccc(F)cc1)c1nc2n(c(=O)c1O)CC1CCC2(NC(=O)C2CCCN2C(=O)C2CCC2)CC1` (stereo not drawn) [Example 400] cannot be ordered by IC50: < 10 nM for the first, < 10 nM for the second.

`Cc1cc(CNC(=O)c2nc3n(c(=O)c2O)CC2CCC3(NC(=O)c3ccncc3)CC2)ccc1F` [Example 309, 7,10-Ethanopyrimido[1,2-a]azepine-2-carboxamide, N-[(4-fluoro-3-methylphenyl)methyl]-4,6,7,8,9,10-hexahydro-3-hydroxy-4-oxo-10-[(4-pyridinylcarbonyl)amino]-] and `Cc1cc(CNC(=O)c2nc3n(c(=O)c2O)CC2CCC3(NC(=O)C(C)n3cncn3)CC2)ccc1F` (stereo not drawn) [Example 291, 7,10-Ethanopyrimido[1,2-a]azepine-2-carboxamide, N-[(4-fluoro-3-methylphenyl)methyl]-4,6,7,8,9,10-hexahydro-3-hydroxy-4-oxo-10-[[1-oxo-2-(1H-1,2,4-triazol-1-yl)propyl]amino]-] cannot be ordered by IC50: < 10 nM for the first, < 10 nM for the second.

First: Cc1ccc(C(=O)NC23CCC(CC2)Cn2c3nc(C(=O)NCc3ccc(F)cc3)c(O)c2=O)o1 [Example 237, 7,10-Ethanopyrimido[1,2-a]azepine-2-carboxamide, N-[(4-fluorophenyl)methyl]-4,6,7,8,9,10-hexahydro-3-hydroxy-10-[[(5-methyl-2-furanyl)carbonyl]amino]-4-oxo-]
Second: Cc1ncn(C)c1C(=O)NC12CCC(CC1)Cn1c2nc(C(=O)NCc2ccc(F)cc2)c(O)c1=O [Example 243, 7,10-Ethanopyrimido[1,2-a]azepine-2-carboxamide, 10-[[(1,4-dimethyl-1H-imidazol-5-yl)carbonyl]amino]-N-[(4-fluorophenyl)methyl]-4,6,7,8,9,10-hexahydro-3-hydroxy-4-oxo-]
The IC50 of the first is lower: < 10 nM for the first, 10 to 100 nM for the second.

Compared with `NC12CCC(Cn3c1nc(C(=O)NCc1ccc(F)cc1)c(O)c3=O)C2` (stereo not drawn) [Example 190, 7,10-Methanopyrimido[1,2-a]azepine-2-carboxamide, 10-amino-N-[(4-fluorophenyl)methyl]-4,6,7,8,9,10-hexahydro-3-hydroxy-4-oxo-], `CS(=O)(=O)NC12CCC(Cn3c1nc(C(=O)NCc1ccc(F)cc1)c(O)c3=O)C2` (stereo not drawn) [Example 192, 7,10-Methanopyrimido[1,2-a]azepine-2-carboxamide, N-[(4-fluorophenyl)methyl]-4,6,7,8,9,10-hexahydro-3-hydroxy-10-[(methylsulfonyl)amino]-4-oxo-] is lower in IC50: 10 to 100 nM for the first, < 10 nM for the second.

First: CN1CCN(c2cccc(CNC(=O)c3nc4n(c(=O)c3O)CC3CCC4(NC(=O)C(=O)N(C)C)CC3)c2)CC1 [Example 127, N′-(3-Hydroxy-2-((3-(4-methyl-1-piperazinyl)benzyl)carbamoyl)-4-oxo-6,7,8,9-tetrahydro-7,10-ethanopyrimido[1,2-a]azepin-10(4H)-yl)-N,N-dimethylethanediamide]
Second: COc1cc(CNC(=O)c2nc3n(c(=O)c2O)CC2CCC3(NC(=O)C(=O)N(C)C)CC2)ccc1F [Example 133, N′-(2-((4-Fluoro-3-methoxybenzyl)carbamoyl)-3-hydroxy-4-oxo-6,7,8,9-tetrahydro-7,10-ethanopyrimido[1,2-a]azepin-10(4H)-yl)-N,N-dimethylethanediamide]
The IC50 of the first is higher: 10 to 100 nM for the first, < 10 nM for the second. The second is the more potent here.

First: Cc1cc(C(=O)N(C)C23CCC(CC2)Cn2c3nc(C(=O)NCc3ccc(F)cc3)c(O)c2=O)no1 [Example 154, N-(4-Fluorobenzyl)-3-hydroxy-10-(methyl((5-methyl-3-isoxazolyl)carbonyl)amino)-4-oxo-4,6,7,8,9,10-hexahydro-7,10-ethanopyrimido[1,2-a]azepine-2-carboxamide]
Second: O=C(NC(=S)NC12CCC(CC1)Cn1c2nc(C(=O)NCc2ccc(F)cc2)c(O)c1=O)c1ccccc1 [Example 332, 7,10-Ethanopyrimido[1,2-a]azepine-2-carboxamide, 10-[[(benzoylamino)thioxomethyl]amino]-N-[(4-fluorophenyl)methyl]-4,6,7,8,9,10-hexahydro-3-hydroxy-4-oxo-]
The IC50 of the first is lower: < 10 nM for the first, 10 to 100 nM for the second.

`CCN(C)C(=O)C(=O)NC12CCC(CCn3c1nc(C(=O)NCc1ccc(F)cc1)c(O)c3=O)C2` (stereo not drawn) [Example 204] and `CN(C)C(=O)C(=O)NC12CCC(CCn3c1nc(C(=O)NCc1ccc(F)c(Cl)c1)c(O)c3=O)C2` (stereo not drawn) [Example 213, Ethanediamide, N′-[2-[[[(3-chloro-4-fluorophenyl)methyl]amino]carbonyl]-7,8,9,10-tetrahydro-3-hydroxy-4-oxo-8,11-methano-4H-pyrimido[1,2-a]azocin-11(6H)-yl]-N,N-dimethyl-] cannot be ordered by IC50: < 10 nM for the first, < 10 nM for the second.

`CN(C)S(=O)(=O)N1CCN(C(=O)C(=O)NC23CCC(CC2)Cn2c3nc(C(=O)NCc3ccc(F)cc3)c(O)c2=O)CC1` [Example 145, 10-(((4-(Dimethylsulfamoyl)-1-piperazinyl)(oxo)acetyl)amino)-N-(4-fluorobenzyl)-3-hydroxy-4-oxo-4,6,7,8,9,10-hexahydro-7,10-ethanopyrimido[1,2-a]azepine-2-carboxamide] and `O=C(NC12CCC(CC1)Cn1c2nc(C(=O)NCc2ccc(F)cc2)c(O)c1=O)C(=O)N1CCNCC1` [Example 62, N-(4-Fluorobenzyl)-3-hydroxy-4-oxo-10-((oxo(1-piperazinyl)acetyl)amino)-4,6,7,8,9,10-hexahydro-7,10-ethanopyrimido[1,2-a]azepine-2-carboxamide] cannot be ordered by IC50: < 10 nM for the first, < 10 nM for the second.

`Cc1cc(CNC(=O)c2nc3n(c(=O)c2O)CCC2CCC3(NC(=O)C(=O)N3CC[C@@H](F)C3)C2)ccc1F` (stereo partly drawn) [Example 216, 8,11-Methano-4H-pyrimido[1,2-a]azocine-2-carboxamide, N-[(4-fluoro-3-methylphenyl)methyl]-11-[[2-[(3R)-3-fluoro-1-pyrrolidinyl]-1,2-dioxoethyl]amino]-6,7,8,9,10,11-hexahydro-3-hydroxy-4-oxo-] and `O=C(NC12CCC(CC1)Cn1c2nc(C(=O)NCc2ccc(F)cc2)c(O)c1=O)C(=O)N1CCC[C@H]1CO` [Example 69, N-(4-Fluorobenzyl)-3-hydroxy-10-((((2S)-2-(hydroxymethyl)-1-pyrrolidinyl)(oxo)acetyl)amino)-4-oxo-4,6,7,8,9,10-hexahydro-7,10-ethanopyrimido[1,2-a]azepine-2-carboxamide] cannot be ordered by IC50: < 10 nM for the first, < 10 nM for the second.

`CO[C@H]1C[C@@H](C(=O)NC23CCC(CC2)Cn2c3nc(C(=O)NCc3ccc(F)c(C)c3)c(O)c2=O)N(C(=O)c2nccn2C)C1` [Example 298, 7,10-Ethanopyrimido[1,2-a]azepine-2-carboxamide, N-[(4-fluoro-3-methylphenyl)methyl]-4,6,7,8,9,10-hexahydro-3-hydroxy-10-[[[(2S,4S)-4-methoxy-1-[(1-methyl-1H-imidazol-2-yl)carbonyl]-2-pyrrolidinyl]carbonyl]amino]-4-oxo-] and `CO[C@H]1C[C@@H](C(=O)NC23CCC(CC2)Cn2c3nc(C(=O)NCc3ccc(F)cc3)c(O)c2=O)N(S(C)(=O)=O)C1` [Example 272, 7,10-Ethanopyrimido[1,2-a]azepine-2-carboxamide, N-[(4-fluorophenyl)methyl]-4,6,7,8,9,10-hexahydro-3-hydroxy-10-[[[(2S,4S)-4-methoxy-1-(methylsulfonyl)-2-pyrrolidinyl]carbonyl]amino]-4-oxo-] cannot be ordered by IC50: < 10 nM for the first, < 10 nM for the second.

First: CN(C)C(=O)C(=O)NC12CCC(CC1)Cn1c2nc(C(=O)NCc2ccc(F)cc2-c2ncnn2C)c(O)c1=O [Example 107, N′-(2-((4-Fluoro-2-(1-methyl-1H-1,2,4-triazol-5-yl)benzyl)carbamoyl)-3-hydroxy-4-oxo-6,7,8,9-tetrahydro-7,10-ethanopyrimido[1,2-a]azepin-10(4H)-yl)-N,N-dimethylethanediamide]
Second: CCS(=O)(=O)N1CCCC1C(=O)NC12CCC(CC1)Cn1c2nc(C(=O)NCc2ccc(F)cc2)c(O)c1=O (stereo not drawn) [Example 403]
The IC50 of the first is higher: 10 to 100 nM for the first, < 10 nM for the second.

First: CN(C(=O)OCc1ccccc1)C1c2nc(C(=O)NCc3ccc(F)cc3)c(O)c(=O)n2CC2CCC1C2 (stereo not drawn) [Example 8]
Second: CN(C)CC(=O)NC12CCC(CC1)n1c2nc(C(=O)NCc2ccc(F)cc2)c(O)c1=O [Example 14, 6,9-Ethano-4H-pyrido[1,2-a]pyrimidine-2-carboxamide, 9-[[(dimethylamino)acetyl]amino]-N-[(4-fluorophenyl)methyl]-6,7,8,9-tetrahydro-3-hydroxy-4-oxo-]
The IC50 of the first is lower: < 10 nM for the first, 10 to 100 nM for the second. The first is the more potent here.
